Publication PMC11062899, “De novo development of small cyclic peptides that are orally bioavailable” (Nature Chemical Biology, 2023)

Target: human α-thrombin (Homo sapiens, UniProt P00734)
Assay: Sub-library screen for active and permeable cyclic peptides (PAMPA plus thrombin inhibition)
Assay type: biochemical
Details: crude, slopes normalized to DMSO; for Residual thrombin activity: Top sample: PAMPA acceptor well after 14 h, 5 μM donor; for Residual thrombin activity: Equilibrated sample: donor sample diluted to theoretical equilibrium (1 μM in assay)
Protocol: Linear dithiol peptides were synthesized in fritted 5-ml polypropylene syringes on a MultiPep RSi parallel peptide synthesizer (Intavis) by standard Fmoc-based solid-phase peptide synthesis on cysteamine 2-chlorotrityl resin (Sigma-Aldrich, 8.56000, 1.63 mmol g^−1 loading, 25 μmol scale) as described above with small changes. Amino acids (65 μmol, 2.6 eq.) were activated with HATU (63 μmol, 2.5 eq.) and NMM (145 μmol, 5.8 eq.) in 280 μl of DMF and 5 μl of NMP and let to react with the resin (25 μmol, 1 eq.) for 45 min. Couplings were performed twice for each amino acid. Resin was washed once with 800 μl of DMF, and unreacted amines were capped with 5% acetic anhydride and 6% 2,6-lutidine in 400 μl of DMF for 5 min. The resin was washed six times with 600 μl of DMF, and Fmoc protecting groups were removed by incubating the resin twice with 450 μl of a 20% piperidine solution in DMF for 5 min. The resin was washed six times with 600 μl of DMF before proceeding to the next coupling cycle. After completing the last coupling cycle, the resin was washed six times with […] of DCM. Peptide cleavage and ether precipitation were carried out as described above. After quantification with Ellman’s reagent, 1 μmol of each peptide was transferred in seven replicates to new Nunc 96-well DeepWell polypropylene plates and lyophilized. Peptides were cyclized as described above to afford 20 mM cyclic peptide stock solutions in DMSO containing 160 mM HEPES sodium salt. The amine on cyclic peptides was acylated with 5-chlorothiophene-2-carboxylic acid as follows. A 160 mM solution in 5-chlorothiophene-2-carboxylic acid was prepared in DMSO containing 160 mM HEPES sodium salt, and the acid was activated by mixing in equal volumes with a 160 mM HSTU solution in DMSO. Then, 10 μl of the activated carboxylic acid solutions and the cyclic peptide stocks were placed in Echo Qualified 384-well Low Dead Volume microplates (Labcyte), and 400 nl of cyclic peptide and 400 nl of HSTU-activated 5-chlorothiophene-2-carboxylic acid were transferred combinatorially to 384-well microplates (Greiner, 781076) using the Echo 650 acoustic liquid handler (Labcyte). Plates were centrifuged at 2,000 g for 2 min, and the reaction was allowed to proceed at room temperature for 8 h before addition of 39.2 μl of DMSO with a CERTUS FLEX liquid dispenser (Gyger). A volume of 25 μl of the resulting DMSO solutions was diluted with PBS buffer at pH 7.4 containing 5% DMSO in Nunc 96-well DeepWell polypropylene plates to afford 5 μM solutions of the acylated peptides.
The PAMPA plates were covered with a lid to avoid evaporation and incubated for 14 h at room temperature. Additionally, a diluted donor sample was prepared at the concentration representing theoretical maximum permeability (3 μM). Thereby, 30 μl of the donor sample before incubation was diluted with 20 μl of PBS buffer at pH 7.4 containing 5% DMSO. Volumes of 16 μl of each acceptor well and the diluted donor samples were transferred to a 384-well microplate (Greiner, 781076), and thrombin activity was measured as follows. Human α-thrombin (16 μl, 6 nM, Molecular Innovations) in assay buffer was dispensed into each well using a CERTUS FLEX liquid dispenser (Gyger), and plates were incubated at room temperature for 10 min. Then, 16 μl of a 150 μM fluorogenic thrombin substrate solution (Z-Gly-Gly-Arg-AMC, Bachem) in assay buffer containing 1% DMSO was added to each well, and thrombin inhibition was determined by measuring the fluorescent gain over time. Fluorescence intensity was measured on a Tecan Infinite M200 Pro microplate reader for 30 min at 25 °C with a fluorescent readout every 3 min (excitation: 360 nm, emission: 465 nm). Protease inhibition was calculated by comparing the enzymatic activity to a control without cyclic peptide.

| Structure (SMILES) | Residual thrombin activity: Top sample | Residual thrombin activity: Equilibrated sample |
| --- | --- | --- |
| N#Cc1ccc(C[C@@H]2NC(=O)[C@@H](NC(=O)c3ccc(Cl)s3)CSCc3cccc(n3)CSCCNC(=O)C[C@H]3CCCN3C2=O)cc1 [C1-X35-L1] | 91.5 | 92.1 |
| N#Cc1ccc(C[C@@H]2NC(=O)[C@@H](NC(=O)c3ccc(Cl)s3)CSCCS(=O)(=O)CCSCCNC(=O)C[C@H]3CCCN3C2=O)cc1 [C1-X35-L2] | 95.6 | 96.6 |
| N#Cc1ccc(C[C@@H]2NC(=O)[C@@H](NC(=O)c3ccc(Cl)s3)CSCc3ccc(cc3)CSCCNC(=O)C[C@H]3CCCN3C2=O)cc1 [C1-X35-L3] | 94.1 | 100.0 |
| N#Cc1ccc(C[C@@H]2NC(=O)[C@@H](NC(=O)c3ccc(Cl)s3)CSC/C=C/CSCCNC(=O)C[C@H]3CCCN3C2=O)cc1 [C1-X35-L4] | 93.4 | 96.9 |
| N#Cc1ccc(C[C@@H]2NC(=O)[C@@H](NC(=O)c3ccc(Cl)s3)CSCc3cccc(c3)CSCCNC(=O)C[C@H]3CCCN3C2=O)cc1 [C1-X35-L5] | 102.4 | 97.2 |
| N#Cc1ccc(C[C@@H]2NC(=O)[C@@H](NC(=O)c3ccc(Cl)s3)CSCc3ccccc3CSCCNC(=O)C[C@H]3CCCN3C2=O)cc1 [C1-X35-L6] | 90.5 | 92.5 |
| N#Cc1ccc(C[C@@H]2NC(=O)[C@@H](NC(=O)c3ccc(Cl)s3)CSCC(=O)CSCCNC(=O)C[C@H]3CCCN3C2=O)cc1 [C1-X35-L7] | 96.3 | 100.4 |
| O=C1C[C@H]2CCCN2C(=O)[C@H](Cc2ccc(C(F)(F)F)cc2)NC(=O)[C@@H](NC(=O)c2ccc(Cl)s2)CSCc2cccc(n2)CSCCN1 [C1-X36-L1] | 93.6 | 98.9 |
| O=C1C[C@H]2CCCN2C(=O)[C@H](Cc2ccc(C(F)(F)F)cc2)NC(=O)[C@@H](NC(=O)c2ccc(Cl)s2)CSCCS(=O)(=O)CCSCCN1 [C1-X36-L2] | 99.0 | 102.5 |
| O=C1C[C@H]2CCCN2C(=O)[C@H](Cc2ccc(C(F)(F)F)cc2)NC(=O)[C@@H](NC(=O)c2ccc(Cl)s2)CSCc2ccc(cc2)CSCCN1 [C1-X36-L3] | 95.8 | 94.6 |
| O=C1C[C@H]2CCCN2C(=O)[C@H](Cc2ccc(C(F)(F)F)cc2)NC(=O)[C@@H](NC(=O)c2ccc(Cl)s2)CSC/C=C/CSCCN1 [C1-X36-L4] | 96.8 | 92.7 |
| O=C1C[C@H]2CCCN2C(=O)[C@H](Cc2ccc(C(F)(F)F)cc2)NC(=O)[C@@H](NC(=O)c2ccc(Cl)s2)CSCc2cccc(c2)CSCCN1 [C1-X36-L5] | 101.6 | 104.5 |
| O=C1C[C@H]2CCCN2C(=O)[C@H](Cc2ccc(C(F)(F)F)cc2)NC(=O)[C@@H](NC(=O)c2ccc(Cl)s2)CSCc2ccccc2CSCCN1 [C1-X36-L6] | 91.2 | 94.8 |
| O=C1CSCCNC(=O)C[C@H]2CCCN2C(=O)[C@H](Cc2ccc(C(F)(F)F)cc2)NC(=O)[C@@H](NC(=O)c2ccc(Cl)s2)CSC1 [C1-X36-L7] | 100.3 | 99.5 |
| Cc1cccc(C[C@@H]2NC(=O)[C@@H](NC(=O)c3ccc(Cl)s3)CSCc3cccc(n3)CSCCNC(=O)C[C@H]3CCCN3C2=O)c1 [C1-X37-L1] | 86.5 | 84.1 |
| Cc1cccc(C[C@@H]2NC(=O)[C@@H](NC(=O)c3ccc(Cl)s3)CSCCS(=O)(=O)CCSCCNC(=O)C[C@H]3CCCN3C2=O)c1 [C1-X37-L2] | 93.0 | 57.2 |

| Structure (SMILES) | Residual thrombin activity: Top sample | Residual thrombin activity: Equilibrated sample |
| --- | --- | --- |
| Cc1cccc(C[C@@H]2NC(=O)[C@@H](NC(=O)c3ccc(Cl)s3)CSCc3ccc(cc3)CSCCNC(=O)C[C@H]3CCCN3C2=O)c1 [C1-X37-L3] | 95.4 | 90.2 |
| Cc1cccc(C[C@@H]2NC(=O)[C@@H](NC(=O)c3ccc(Cl)s3)CSC/C=C/CSCCNC(=O)C[C@H]3CCCN3C2=O)c1 [C1-X37-L4] | 87.8 | 60.4 |
| Cc1cccc(C[C@@H]2NC(=O)[C@@H](NC(=O)c3ccc(Cl)s3)CSCc3cccc(c3)CSCCNC(=O)C[C@H]3CCCN3C2=O)c1 [C1-X37-L5] | 100.9 | 88.0 |
| Cc1cccc(C[C@@H]2NC(=O)[C@@H](NC(=O)c3ccc(Cl)s3)CSCc3ccccc3CSCCNC(=O)C[C@H]3CCCN3C2=O)c1 [C1-X37-L6] | 93.2 | 84.4 |
| Cc1cccc(C[C@@H]2NC(=O)[C@@H](NC(=O)c3ccc(Cl)s3)CSCC(=O)CSCCNC(=O)C[C@H]3CCCN3C2=O)c1 [C1-X37-L7] | 94.3 | 97.7 |
| O=C1C[C@H]2CCCN2C(=O)[C@H](Cc2ccccc2)NC(=O)[C@@H](NC(=O)c2ccc(Cl)s2)CCSCc2cccc(n2)CSCCN1 [C2-X5-L1] | 56.1 | 37.8 |
| O=C1C[C@H]2CCCN2C(=O)[C@H](Cc2ccccc2)NC(=O)[C@@H](NC(=O)c2ccc(Cl)s2)CCSCCS(=O)(=O)CCSCCN1 [C2-X5-L2] | 89.4 | 25.8 |
| O=C1C[C@H]2CCCN2C(=O)[C@H](Cc2ccccc2)NC(=O)[C@@H](NC(=O)c2ccc(Cl)s2)CCSCc2ccc(cc2)CSCCN1 [C2-X5-L3] | 86.6 | 59.6 |
| O=C1C[C@H]2CCCN2C(=O)[C@H](Cc2ccccc2)NC(=O)[C@@H](NC(=O)c2ccc(Cl)s2)CCSC/C=C/CSCCN1 [C2-X5-L4] | 61.9 | 33.0 |
| O=C1C[C@H]2CCCN2C(=O)[C@H](Cc2ccccc2)NC(=O)[C@@H](NC(=O)c2ccc(Cl)s2)CCSCc2cccc(c2)CSCCN1 [C2-X5-L5] | 90.5 | 54.8 |
| O=C1C[C@H]2CCCN2C(=O)[C@H](Cc2ccccc2)NC(=O)[C@@H](NC(=O)c2ccc(Cl)s2)CCSCc2ccccc2CSCCN1 [C2-X5-L6] | 87.4 | 76.1 |
| O=C1CSCCNC(=O)C[C@H]2CCCN2C(=O)[C@H](Cc2ccccc2)NC(=O)[C@@H](NC(=O)c2ccc(Cl)s2)CCSC1 [C2-X5-L7] | 95.7 | 44.2 |
| O=C1C[C@H]2CCCN2C(=O)[C@@H](Cc2ccccc2)NC(=O)[C@@H](NC(=O)c2ccc(Cl)s2)CCSCc2cccc(n2)CSCCN1 [C2-X31-L1] | 93.0 | 90.7 |
| O=C1C[C@H]2CCCN2C(=O)[C@@H](Cc2ccccc2)NC(=O)[C@@H](NC(=O)c2ccc(Cl)s2)CCSCCS(=O)(=O)CCSCCN1 [C2-X31-L2] | 98.7 | 98.6 |
| O=C1C[C@H]2CCCN2C(=O)[C@@H](Cc2ccccc2)NC(=O)[C@@H](NC(=O)c2ccc(Cl)s2)CCSCc2ccc(cc2)CSCCN1 [C2-X31-L3] | 96.0 | 100.5 |
